pIC50: −log10 of the molar value. Counter-ions that a name gives are not always drawn. Like-named read-outs stand apart in the source and are kept apart here. Values belong to the molecule of their own block, whether it stands above or below them.
Legend:
human thrombocytes = test: Inhibition of arachidonic acid induced aggregation of human thrombocytes in-vitro; type: cell-based; conditions: for Relative activity against the aggregation of human thrombocytes induced by arachidonic acid: relative to 5,6-dihydroprostacyclin = 1.0
From the text: Relative activity against the aggregation
of human thrombocytes induced by arachidonic acid
in-vitro (the IC50, i.e., the concentration causing
under the experimental conditions in 50% of the cases
inhibition of the platelet aggregation for 5,6-di-

blood pressure = test: Blood pressure lowering in conscious, spontaneous hypertensive rats; type: in vivo, rat; conditions: for Relative blood pressure lowering activity: relative to 5,6-dihydroprostacyclin = 1.0; for Effect in relation to maximum effect, 10 min. after administration (blood pressure lowering) / Effect in relation to maximum effect, 30 min. after administration (blood pressure lowering): maximum effect = 100%
From the text: (§1) Surprising for the compounds according to the invention is the relation of their blood platelet aggregation inhibiting effect to their blood pressure lowering activity.
Relative blood pressure lowering activity in
conscious, spontaneous hypertensive rats (measurement
via in-dwelling catheter; intravenous administration
of the test compounds; the ED20 for 5,6-dihydroprosta-
cyclin under these experimental conditions is 0.005
Duration of the blood pressure lowering effect
in conscious, spontaneous hypertensive rats (intra-

[1] = tested on: ADP induced fall in platelet count; test: ADP induced fall in platelet count in-vivo in narcotized rats; design: species or system rat; conditions: for Relative activity on the ADP induced fall in platelet count in-vivo: relative to 5,6-dihydroprostacyclin = 1.0; for Relative activity on the ADP induced fall in platelet count in-vivo / Maximum effect % Aggregation inhibition: narcotized rats; for Effect in relation to maximum effect, 10 min. after administration (aggregation inhibition) / Effect in relation to maximum effect, 30 min. after administration (aggregation inhibition): maximum effect = 100%
Description: as §1
Relative activity on the ADP induced fall
in platelet count in-vivo in narcotized rats (urethane
narcosis; intravenous administration of the test
compounds; the ED50 for 5,6-dihydroprostacyclin under
these experimental conditions is 0.0114 mg/kg):
Duration of the platelet aggregation inhibiting
effect in-vivo (measured with the model of ADP induced
fall in platelet count in narcotized rats on intra-
venous administration of the test compounds)

[2] = tested on: platelet aggregation versus blood pressure; test: Index of selectivity: platelet aggregation inhibition versus blood pressure lowering (from Tables 1b and 1c); type: in vivo, rat; conditions: for Index of selectivity: in comparison to 5,6-dihydroprostacyclin, calculated from Tables 1b and 1c
From the text: as §1
in comparison to 5,6-dihydroprostacyclin (calculated

isolated rat uterus = test: Contraction inducing activity on isolated rat uterus; conditions: Prostaglandin F2α = 100%
From the text: (§2) Relative contraction inducing activities
(a) tests on isolated rat uterus

isolated rat colon = test: Contraction inducing activity on isolated rat colon; conditions: Prostaglandin F2α = 100%
From the text: as §2
(b) tests on isolated rat colon

Chemical stability = type: physicochemical
[3] = tested on: smooth muscle of the intestine and uterus; conditions: cited from earlier work; for Smooth muscle contraction: intestine and uterus
[4] = tested on: ADP induced fall in platelet count; conditions: background statement; also blood pressure lowering; cited from earlier work
[5] = tested on: platelet aggregation versus blood pressure; conditions: background; cited from earlier work
[6] = background; cited from earlier work
[7] = conscious spontaneous hypertensive rats, intravenous

Structure (SMILES): CCCCC[C@](C)(O)/C=C/[C@@H]1[C@H]2C/C(=C\c3cccc(C(=O)O)c3)O[C@H]2C[C@H]1O [1e)ii), Sodium salt of [(5E, 13E, 9α, 11α, 15S)-2,3,4-trinor-1,5-inter-m-phenylene-6,9-epoxy-11,15-dihydroxy-15-methyl]-prosta-5,13-dienoic acid]
Relative activity against the aggregation of human thrombocytes induced by arachidonic acid (human thrombocytes; in-vitro): 0.25
Relative blood pressure lowering activity (blood pressure; [7]): 0.014
Relative activity on the ADP induced fall in platelet count in-vivo ([1]; intravenous): 0.97
Index of selectivity [2]: 69.3

pIC50 (human thrombocytes; human thrombocytes, induced by arachidonic acid, in-vitro, read-out: IC50, inhibition of platelet aggregation): 6.74
Chemical stability (Chemical stability): chemically stable
Structure (SMILES): CCCCCC(O)C=CC1C(O)CC2OC(CCCCC(=O)O)CC21 (stereo not shown) [5,6-Dihydroprostacyclin, 5,6-dihydroprostacyclin, reference compound]
Relative activity against the aggregation of human thrombocytes induced by arachidonic acid (human thrombocytes; in-vitro): 1.0
Maximum effect % Blood pressure lowering (blood pressure; 0.0215 mg/kg intravenous): 28%
Effect in relation to maximum effect, 10 min. after administration (blood pressure lowering) (blood pressure; 0.0215 mg/kg intravenous): 7.1%
Effect in relation to maximum effect, 30 min. after administration (blood pressure lowering) (blood pressure; 0.0215 mg/kg intravenous): 0%
ED20, blood pressure lowering (blood pressure; conscious spontaneous hypertensive rats, intravenous, in-dwelling catheter): 5 µg/kg
Relative blood pressure lowering activity (blood pressure; [7]): 1.0
Relative contraction inducing activity (isolated rat uterus): 26.1%
Relative contraction inducing activity (isolated rat colon): 23.8%
Maximum effect % Aggregation inhibition ([1]; 0.1 mg/kg intravenous): 62.4%
Effect in relation to maximum effect, 10 min. after administration (aggregation inhibition) ([1]; 0.1 mg/kg intravenous): 33.8%
Effect in relation to maximum effect, 30 min. after administration (aggregation inhibition) ([1]; 0.1 mg/kg intravenous): 0%
Duration of aggregation inhibiting and blood pressure lowering activities ([1]; also blood pressure lowering): only for a short time
ED50, ADP induced fall in platelet count ([1]; narcotized rats (urethane), intravenous): 11.4 µg/kg
Relative activity on the ADP induced fall in platelet count in-vivo ([1]; intravenous): 1.0
Index of selectivity [2]: 1.0
Relation of platelet aggregation inhibiting to blood pressure lowering dosage ([2]; rat, in vivo): produces both these effects at the same dosage range

Structure (SMILES): CCCCC[C@](C)(O)/C=C/[C@@H]1[C@H]2C/C(=C/c3cccc(C(=O)O)c3)O[C@H]2C[C@H]1O [Example 1e)i), Sodium salt of [(5Z, 13E, 9α, 11α, 15S)-2,3,4-trinor-1,5-inter-m-phenylene-6,9-epoxy-11,15-dihydroxy-15-methyl]-prosta-5,13-dienoic acid]
Relative activity against the aggregation of human thrombocytes induced by arachidonic acid (human thrombocytes; in-vitro): 0.86
Relative blood pressure lowering activity (blood pressure; [7]): 0.1
Relative contraction inducing activity (isolated rat uterus): 0.58%
Relative contraction inducing activity (isolated rat colon): 0.002%
Maximum effect % Aggregation inhibition ([1]; 1.0 mg/kg intravenous): 72.7%
Effect in relation to maximum effect, 10 min. after administration (aggregation inhibition) ([1]; 1.0 mg/kg intravenous): 69.3%
Effect in relation to maximum effect, 30 min. after administration (aggregation inhibition) ([1]; 1.0 mg/kg intravenous): 41.3%
Relative activity on the ADP induced fall in platelet count in-vivo ([1]; intravenous): 1.3
Index of selectivity [2]: 13.0

Structure (SMILES): CCCCC[C@H](O)/C=C/[C@@H]1[C@H]2C/C(=C\c3cccc(C(=O)O)c3)O[C@H]2C[C@H]1O [Example 2a, Sodium salt of [(5E, 13E, 9α, 11α, 15S)-2,3,4-trinor-1,5-inter-m-phenylene-6,9-epoxy-11,15-dihydroxy]-prosta-5,13-dienoic acid]
Relative activity against the aggregation of human thrombocytes induced by arachidonic acid (human thrombocytes; in-vitro): 1.2

Structure (SMILES): CCCCC[C@H](O)/C=C/[C@@H]1[C@H]2C/C(=C/c3cccc(C(=O)O)c3)O[C@H]2C[C@H]1O [Example 2b, Sodium salt of [(5Z, 13E, 9α, 11α,15S)-2,3,4-trinor-1,5-inter-m-phenylene-6,9-epoxy-11,15-dihydroxy]prosta-5,13-dienoic acid]
Relative activity against the aggregation of human thrombocytes induced by arachidonic acid (human thrombocytes; in-vitro): 1.2

Structure (SMILES): O=C(O)c1cccc(/C=C2/C[C@@H]3[C@@H](/C=C/[C@@H](O)C4CCCCC4)[C@H](O)C[C@@H]3O2)c1 [Example 3b, Sodium salt of [(5Z, 13E, 9α, 11α, 15S)-2,3,4-trinor-1,5-inter-m-phenylene-6,9-epoxy-11,15-dihydroxy-15-cyclohexyl-16,17,18,19,20-pentanor]-prosta-5,13-dienoic acid]
Activity compared with 5,6-dihydroprostacyclin, in-vitro (human thrombocytes; in-vitro (Table 1a)): several times more active than 5,6-dihydroprostacyclin
Relative activity against the aggregation of human thrombocytes induced by arachidonic acid (human thrombocytes; in-vitro): 18.0
Maximum effect % Blood pressure lowering (blood pressure; 0.1 mg/kg intravenous): 23%
Effect in relation to maximum effect, 10 min. after administration (blood pressure lowering) (blood pressure; 0.1 mg/kg intravenous): 87.0%
Effect in relation to maximum effect, 30 min. after administration (blood pressure lowering) (blood pressure; 0.1 mg/kg intravenous): 39.1%
Relative blood pressure lowering activity (blood pressure; [7]): 0.25
Maximum effect % Aggregation inhibition ([1]; 0.1 mg/kg intravenous): 72.5%
Effect in relation to maximum effect, 10 min. after administration (aggregation inhibition) ([1]; 0.1 mg/kg intravenous): 62.6%
Effect in relation to maximum effect, 30 min. after administration (aggregation inhibition) ([1]; 0.1 mg/kg intravenous): 66.3%
Activity compared with 5,6-dihydroprostacyclin, in-vivo ([1]; in-vivo (Table 1b)): several times more active than 5,6-dihydroprostacyclin
Relative activity on the ADP induced fall in platelet count in-vivo ([1]; intravenous): 5.0
Index of selectivity [2]: 20.0

Structure (SMILES): CCCCC(CC)[C@H](O)/C=C/[C@@H]1[C@H]2C/C(=C/c3cccc(C(=O)O)c3)O[C@H]2C[C@H]1O (stereo partly drawn) [Example 4b, Sodium salt of [(5Z, 13E, 9α, 11α, 15S, 16RS)-2,3,4-trinor-1,5-inter-m-phenylene-6,9-epoxy-11,15-dihydroxy-16-ethyl]-prosta-5,13-dienoic acid]
Relative activity against the aggregation of human thrombocytes induced by arachidonic acid (human thrombocytes; in-vitro): 0.31
Maximum effect % Blood pressure lowering (blood pressure; 1.0 mg/kg intravenous): 22%
Effect in relation to maximum effect, 10 min. after administration (blood pressure lowering) (blood pressure; 1.0 mg/kg intravenous): 90.9%
Effect in relation to maximum effect, 30 min. after administration (blood pressure lowering) (blood pressure; 1.0 mg/kg intravenous): 68.2%
Relative blood pressure lowering activity (blood pressure; [7]): 0.012
Maximum effect % Aggregation inhibition ([1]; 1.0 mg/kg intravenous): 66.8%
Effect in relation to maximum effect, 10 min. after administration (aggregation inhibition) ([1]; 1.0 mg/kg intravenous): 45.4%
Effect in relation to maximum effect, 30 min. after administration (aggregation inhibition) ([1]; 1.0 mg/kg intravenous): 24.5%
Relative activity on the ADP induced fall in platelet count in-vivo ([1]; intravenous): 0.2
Index of selectivity [2]: 16.7

Structure (SMILES): CCCCC[C@H](O)/C=C/[C@H]1[C@H](O)CC(=O)[C@@H]1C/C=C\CCCC(=O)O [PGE2]
Side effects in-vivo ([3]; administered in-vivo): may induce diarrhea and abortion
Smooth muscle contraction [3]: cause contraction of the smooth muscle of the intestine and uterus

Structure (SMILES): CCCCC[C@H](O)/C=C/[C@@H]1[C@H]2C/C(=C/CCCC(=O)O)O[C@H]2C[C@H]1O [Prostacyclin, prostacyclin]
Duration of aggregation inhibiting and blood pressure lowering activities [4]: only for a short time
Relation of platelet aggregation inhibiting to blood pressure lowering dosage [5]: exhibited at generally the same dosage level
Stability [6]: not as stable as would be desirable

Structure (SMILES): CCCCC[C@H](O)/C=C/[C@@H]1[C@@H](C/C=C\CCCC(=O)O)[C@@H](O)C[C@H]1O [Prostaglandin F2α]
Relative contraction inducing activity (isolated rat uterus): 100%
Side effects in-vivo [3]: may induce diarrhea and abortion
Smooth muscle contraction [3]: cause contraction of the smooth muscle of the intestine and uterus
Relative contraction inducing activity (isolated rat colon): 100%

From US4372971A, “Heterocyclic prostaglandin type compounds, medicaments containing them and processes for the preparation and use of these heterocyclic compounds and medicaments” (priority 1980, dated 1983)
